Source: article PMC11053914 (Viruses, 2024)
Peptide text beside a SMILES is read from it. * marks the point of attachment. Cbz = O=C(OCc1ccccc1)*

Columns and labels:
[1] = test system: A3G (Vif-mediated degradation); assay: A3G level in the presence of Vif by Western blotting in HEK293T cells; type: cell-based, human; settings: proteasome inhibitor positive control; A3G without Vif = 100%, Vif alone 31%
[2] = test system: HIV-1 NL4-3 packaged with A3G; type: cell-based; settings: peptides at 25, 50 or 100 μM; DMSO group set to 100%; TZM-bl read-out
CEM-SS cells [3] = assay: Cytotoxicity assay (CellTiter-Glo) in CEM-SS cells; type: cell-based; settings: 2-fold dilutions from 100 μM, 48 h, DMSO group = 100%
CEM cells [4] = assay: Cytotoxicity assay (CellTiter-Glo) in CEM cells; type: cell-based; settings: 2-fold dilutions from 100 μM, 48 h, DMSO group = 100%
CEM-SS cells [5] = assay: Growth of infected CEM-SS cells, trypan blue staining; type: cell-based; settings: infected cells with 50 μM peptide, trypan blue staining every other day
CEM cells [6] = assay: Growth of infected CEM cells, trypan blue staining; type: cell-based; settings: infected cells with 50 μM peptide, trypan blue staining every other day
[7] = biological target: wild-type (WT) Vif displayed on yeast cells (HIV-1) (UniProt P69723); assay: flow cytometry on cells
Chain of UniProt P69723 (P69723 whole entry): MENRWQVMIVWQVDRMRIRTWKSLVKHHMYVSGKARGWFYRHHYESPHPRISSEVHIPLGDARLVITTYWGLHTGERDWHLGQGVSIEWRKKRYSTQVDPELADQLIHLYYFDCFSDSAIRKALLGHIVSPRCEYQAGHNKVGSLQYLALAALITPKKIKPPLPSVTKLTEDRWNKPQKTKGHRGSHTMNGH

## CC(C)C[C@@H](C=O)NC(=O)[C@H](CC(C)C)NC(=O)[C@H](CC(C)C)NC(=O)OCc1ccccc1 [MG132] (Cbz-Leu-Leu-Leu-aldehyde)
[1]
  A3G level in the presence of Vif: 73%

## CC[C@H](C)[C@H](NC(=O)[C@H](CCSC)NC(=O)[C@@H](NC(=O)[C@H](CCC(=O)O)NC(C)=O)C(C)C)C(=O)N[C@H](C(=O)N[C@@H](Cc1c[nH]c2ccccc12)C(=O)N[C@@H](CCC(=O)O)C(=O)N[C@H](C(=O)N[C@@H](CC(=O)O)C(=O)N[C@@H](CCCNC(=N)N)C(=O)N[C@@H](CCSC)C(=O)N[C@@H](CCCNC(=N)N)C(=O)N[C@H](C(=O)N[C@H](C(=O)N[C@H](C(N)=O)[C@@H](C)O)[C@@H](C)O)[C@@H](C)CC)C(C)C)C(C)C [VMP-6] (Ac-EVMIVWEVDRMRITT-NH2)
[2]
  effect on infectivity of the A3G-containing viruses: did not affect the viral infectivity

## CC[C@H](C)[C@H](NC(=O)[C@H](C)NC(=O)[C@H](CC(C)C)NC(=O)CNC(C)=O)C(=O)N[C@H](C(=O)N[C@H](C(=O)N[C@@H](Cc1ccc(O)cc1)C(=O)N[C@@H](Cc1c[nH]c2ccccc12)C(=O)NCC(=O)N[C@@H](CC(C)C)C(=O)N[C@@H](Cc1c[nH]cn1)C(=O)N[C@H](C(=O)NCC(=O)N[C@@H](CCC(=O)O)C(=O)N[C@@H](CCCNC(=N)N)C(=O)NCC(N)=O)[C@@H](C)O)[C@@H](C)O)[C@@H](C)O [VMP-63]
CEM-SS cells [3]
  cytotoxicity on CEM-SS cells: almost no cytotoxicity
CEM cells [4]
  cytotoxicity on CEM cells: almost no cytotoxicity
CEM-SS cells [5]
  growth of CEM-SS cells: not affected
CEM cells [6]
  growth of CEM cells: not affected

## CC(=O)N[C@@H](Cc1c[nH]c2ccccc12)C(=O)NCC(=O)N[C@@H](CC(C)C)C(=O)N[C@@H](Cc1c[nH]cn1)C(=O)N[C@H](C(=O)NCC(=O)N[C@@H](CCC(=O)O)C(=O)N[C@@H](CCCNC(=N)N)C(=O)NCC(N)=O)[C@@H](C)O [VMP-70] (Ac-WGLHTGERG-NH2)
[2]
  effect on infectivity of the A3G-containing viruses: did not affect the viral infectivity

## CC[C@H](C)[C@H](NC(=O)[C@H](C)NC(=O)[C@H](CO)NC(=O)[C@H](CC(N)=O)NC(=O)[C@H](CO)NC(=O)[C@H](Cc1ccccc1)NC(=O)[C@H](CS)NC(=O)[C@H](CC(=O)O)NC(=O)[C@H](Cc1ccccc1)NC(=O)[C@H](Cc1ccc(O)cc1)NC(=O)[C@H](Cc1ccc(O)cc1)NC(=O)[C@H](CC(C)C)NC(=O)[C@H](CCCNC(=N)N)NC(C)=O)C(N)=O [VMP-108]
CEM-SS cells [3]
  cytotoxicity on CEM-SS cells: almost no cytotoxicity
CEM cells [4]
  cytotoxicity on CEM cells: almost no cytotoxicity
CEM-SS cells [5]
  growth of CEM-SS cells: not affected
CEM cells [6]
  growth of CEM cells: not affected

## CC(=O)N[C@@H](Cc1ccc(O)cc1)C(=O)N[C@@H](Cc1ccccc1)C(=O)N[C@@H](CC(=O)O)C(=O)N[C@@H](CS)C(=O)N[C@@H](Cc1ccccc1)C(=O)N[C@@H](CO)C(=O)N[C@@H](CC(N)=O)C(=O)N[C@@H](CO)C(=O)N[C@@H](C)C(=O)N[C@H](C(=O)N[C@@H](CCCNC(=N)N)C(=O)N[C@@H](CCCCN)C(=O)N[C@H](C(N)=O)C(C)C)[C@@H](C)O [VMP-111] (Ac-YFDCFSNSATRKV-NH2)
[2]
  effect on infectivity of the A3G-containing viruses: did not affect the viral infectivity

## CBFβ protein, purified (from UniProt Q13951 1-182) (natural protein)
[7]
  FITC-positive cells: 0.076%
